Structures can show the parent of a compound that is named as a salt. Where two headings read alike, the source gives them in different places.
Assays:
plasmodium berghei = assay: suppression of parasitemia in mice infected with plasmodium berghei; format: in vivo; settings: for ED50: Plasmodium berghei, sc; for ED50 / Mean % Parasitemia / Mean % Suppression / % died: mice
Experimental: Five representative amidinoureas were tested in mice infected with plasmodium berghei. The five compounds tested are the following:
Groups of 10 mice each were used in seven doses totaling 70 mice per compound. The protozoal infection was induced by intraperitoneal injection of 5,000,000 parasitized blood cells from a donor. The compound was administered subcutaneously in doses ranging from 0.15 to 10 mg. per kg., suspended on 0.5% methacel solution (doses expressed as base). The compound was repeatedly injected on the day of inoculation (day 1), day 2 and day 3. Blood smears were performed on days 4, 5, 6 and 10.
Untreated control but infected mice developed fulminating parasitemia of as high as 35% on day 10 and deaths occurred from day 12 to 14.

LD50 in mice = settings: mouse, in vivo
[1] = s.c., 1.0 mg/kg on days 1-3, 4th day
[2] = s.c., 1.0 mg/kg on days 1-3, 5th day
[3] = s.c., 1.0 mg/kg on days 1-3, 6th day
[4] = s.c., 1.0 mg/kg on days 1-3, 10th day
[5] = s.c., 2.0 mg/kg on days 1-3, 4th day
[6] = s.c., 2.0 mg/kg on days 1-3, 5th day
[7] = s.c., 2.0 mg/kg on days 1-3, 6th day
[8] = s.c., 2.0 mg/kg on days 1-3, 10th day
[9] = s.c., 10.0 mg/kg on days 1-3, 4th day
[10] = s.c., 10.0 mg/kg on days 1-3, 5th day
[11] = s.c., 10.0 mg/kg on days 1-3, 6th day
[12] = s.c., 10.0 mg/kg on days 1-3, 10th day
[13] = s.c., .15 mg/kg on days 1-3, 4th day
[14] = s.c., .15 mg/kg on days 1-3, 5th day
[15] = s.c., .15 mg/kg on days 1-3, 6th day
[16] = s.c., .15 mg/kg on days 1-3, 10th day
[17] = s.c., .20 mg/kg on days 1-3, 4th day
[18] = s.c., .20 mg/kg on days 1-3, 5th day
[19] = s.c., .20 mg/kg on days 1-3, 6th day
[20] = s.c., .20 mg/kg on days 1-3, 10th day
[21] = s.c., .30 mg/kg on days 1-3, 4th day
[22] = s.c., .30 mg/kg on days 1-3, 5th day
[23] = s.c., .30 mg/kg on days 1-3, 6th day
[24] = s.c., .30 mg/kg on days 1-3, 10th day
[25] = s.c., .50 mg/kg on days 1-3, 4th day
[26] = s.c., .50 mg/kg on days 1-3, 5th day
[27] = s.c., .50 mg/kg on days 1-3, 6th day
[28] = s.c., .50 mg/kg on days 1-3, 10th day

Question: For `CNC(=N)NC(=O)Nc1c(C)cccc1Br` [Compound B, 1-(2-bromo-6-methylphenyl)-3-methylamidino)urea hydrochloride], which ED50 (plasmodium berghei; 96 h, s.c., levels of parasitemia, 4th day, read-out: SED50 (Suppressant Effective Dose50)) is on record?
Answer: 1.87 mg/kg

Question: And the ED50 (plasmodium berghei; 120 h, s.c., levels of parasitemia, 5th day, read-out: SED50 (Suppressant Effective Dose50))?
Answer: 1.87 mg/kg

Question: And the ED50 (plasmodium berghei; 144 h, s.c., levels of parasitemia, 6th day, read-out: SED50 (Suppressant Effective Dose50))?
Answer: 1.66 mg/kg

Question: And the ED50 (plasmodium berghei; 240 h, s.c., levels of parasitemia, 10th day, read-out: SED50 (Suppressant Effective Dose50))?
Answer: 1.87 mg/kg

Question: What about the ED50 (plasmodium berghei; day 4 to day 10, read-out: HIGHEST SED50) of the same compound?
Answer: 1.87 mg/kg

Question: And the ED50 (plasmodium berghei; day 4 to day 10, read-out: LOWEST SED50)?
Answer: 1.66 mg/kg

Question: And the “FACTOR (HIGHEST SED50 ÷ LOWEST SED50)” value (plasmodium berghei; factor of change, day 4 to day 10, duration of action)?
Answer: 1.12

Question: And the “Mean % Parasitemia” value (plasmodium berghei; [1])?
Answer: 3.75%

Question: What about the “Mean % Suppression” value (plasmodium berghei; [1]) of the same compound?
Answer: 28.6%

Question: And the “Mean % Parasitemia” value (plasmodium berghei; [2])?
Answer: 4.30%

Question: What about the “Mean % Suppression” value (plasmodium berghei; [2]) of the same compound?
Answer: 41.1%

Question: And the “Mean % Parasitemia” value (plasmodium berghei; [3])?
Answer: 5.10%

Question: And the “Mean % Suppression” value (plasmodium berghei; [3])?
Answer: 45.2%

Question: And the “Mean % Parasitemia” value (plasmodium berghei; [4])?
Answer: 23.2%

Question: And the “Mean % Suppression” value (plasmodium berghei; [4])?
Answer: 34.6%

Question: And the “% died” value (plasmodium berghei; s.c., 1.0 mg/kg on days 1-3, 12th day)?
Answer: 0%

Question: What about the “% died” value (plasmodium berghei; s.c., 1.0 mg/kg on days 1-3, 13th day) of the same compound?
Answer: 20%

Question: What about the “% died” value (plasmodium berghei; s.c., 1.0 mg/kg on days 1-3, 14th day) of the same compound?
Answer: 20%

Question: What about the “Mean % Parasitemia” value (plasmodium berghei; [5]) of the same compound?
Answer: 2.50%

Question: What about the “Mean % Suppression” value (plasmodium berghei; [5]) of the same compound?
Answer: 52.3%

Question: And the “Mean % Parasitemia” value (plasmodium berghei; [6])?
Answer: 3.40%

Question: And the “Mean % Suppression” value (plasmodium berghei; [6])?
Answer: 53.2%

Question: What about the “Mean % Parasitemia” value (plasmodium berghei; [7]) of the same compound?
Answer: 4.50%

Question: What about the “Mean % Suppression” value (plasmodium berghei; [7]) of the same compound?
Answer: 51.6%

Question: What about the “Mean % Parasitemia” value (plasmodium berghei; [8]) of the same compound?
Answer: 19.8%

Question: What about the “Mean % Suppression” value (plasmodium berghei; [8]) of the same compound?
Answer: 44.2%

Question: What about the “% died” value (plasmodium berghei; s.c., 2.0 mg/kg on days 1-3, 12th day) of the same compound?
Answer: 0%

Question: What about the “% died” value (plasmodium berghei; s.c., 2.0 mg/kg on days 1-3, 13th day) of the same compound?
Answer: 0%

Question: And the “% died” value (plasmodium berghei; s.c., 2.0 mg/kg on days 1-3, 14th day)?
Answer: 20%

Question: And the “Mean % Parasitemia” value (plasmodium berghei; [9])?
Answer: 0.25%

Question: And the “Mean % Suppression” value (plasmodium berghei; [9])?
Answer: 96.2%

Question: What about the “Mean % Parasitemia” value (plasmodium berghei; [10]) of the same compound?
Answer: 0.50%

Question: And the “Mean % Suppression” value (plasmodium berghei; [10])?
Answer: 94.0%

Question: What about the “Mean % Parasitemia” value (plasmodium berghei; [11]) of the same compound?
Answer: 0.05%

Question: And the “Mean % Suppression” value (plasmodium berghei; [11])?
Answer: 99.6%

Question: What about the “Mean % Parasitemia” value (plasmodium berghei; [12]) of the same compound?
Answer: 0%

Question: What about the “Mean % Suppression” value (plasmodium berghei; [12]) of the same compound?
Answer: 100.0%

Question: What about the “% died” value (plasmodium berghei; s.c., 10.0 mg/kg on days 1-3, 12th day) of the same compound?
Answer: 0%

Question: And the “% died” value (plasmodium berghei; s.c., 10.0 mg/kg on days 1-3, 13th day)?
Answer: 0%

Question: And the “% died” value (plasmodium berghei; s.c., 10.0 mg/kg on days 1-3, 14th day)?
Answer: 0%

Question: And the “Mean % Parasitemia” value (plasmodium berghei; [13])?
Answer: 5.00%

Question: And the “Mean % Suppression” value (plasmodium berghei; [13])?
Answer: 4.8%

Question: What about the “Mean % Parasitemia” value (plasmodium berghei; [14]) of the same compound?
Answer: 7.00%

Question: What about the “Mean % Suppression” value (plasmodium berghei; [14]) of the same compound?
Answer: 4.1%

Question: What about the “Mean % Parasitemia” value (plasmodium berghei; [15]) of the same compound?
Answer: 7.80%

Question: What about the “Mean % Suppression” value (plasmodium berghei; [15]) of the same compound?
Answer: 16.1%

Question: What about the “Mean % Parasitemia” value (plasmodium berghei; [16]) of the same compound?
Answer: 34.1%

Question: What about the “Mean % Suppression” value (plasmodium berghei; [16]) of the same compound?
Answer: 3.9%

Question: And the “% died” value (plasmodium berghei; s.c., .15 mg/kg on days 1-3, 12th day)?
Answer: 20%

Question: And the “% died” value (plasmodium berghei; s.c., .15 mg/kg on days 1-3, 13th day)?
Answer: 20%

Question: What about the “% died” value (plasmodium berghei; s.c., .15 mg/kg on days 1-3, 14th day) of the same compound?
Answer: 20%

Question: What about the “Mean % Parasitemia” value (plasmodium berghei; [17]) of the same compound?
Answer: 5.00%

Question: What about the “Mean % Suppression” value (plasmodium berghei; [17]) of the same compound?
Answer: 4.8%

Question: What about the “Mean % Parasitemia” value (plasmodium berghei; [18]) of the same compound?
Answer: 6.90%

Question: And the “Mean % Suppression” value (plasmodium berghei; [18])?
Answer: 5.5%

Question: And the “Mean % Parasitemia” value (plasmodium berghei; [19])?
Answer: 7.40%

Question: And the “Mean % Suppression” value (plasmodium berghei; [19])?
Answer: 20.4%

Question: And the “Mean % Parasitemia” value (plasmodium berghei; [20])?
Answer: 30.2%

Question: What about the “Mean % Suppression” value (plasmodium berghei; [20]) of the same compound?
Answer: 14.9%

Question: What about the “% died” value (plasmodium berghei; s.c., .20 mg/kg on days 1-3, 12th day) of the same compound?
Answer: 0%

Question: And the “% died” value (plasmodium berghei; s.c., .20 mg/kg on days 1-3, 13th day)?
Answer: 20%

Question: And the “% died” value (plasmodium berghei; s.c., .20 mg/kg on days 1-3, 14th day)?
Answer: 40%

Question: And the “Mean % Parasitemia” value (plasmodium berghei; [21])?
Answer: 4.00%

Question: What about the “Mean % Suppression” value (plasmodium berghei; [21]) of the same compound?
Answer: 23.8%

Question: What about the “Mean % Parasitemia” value (plasmodium berghei; [22]) of the same compound?
Answer: 6.60%

Question: What about the “Mean % Suppression” value (plasmodium berghei; [22]) of the same compound?
Answer: 9.6%

Question: What about the “Mean % Parasitemia” value (plasmodium berghei; [23]) of the same compound?
Answer: 6.90%

Question: What about the “Mean % Suppression” value (plasmodium berghei; [23]) of the same compound?
Answer: 25.8%

Question: And the “Mean % Parasitemia” value (plasmodium berghei; [24])?
Answer: 29.1%

Question: And the “Mean % Suppression” value (plasmodium berghei; [24])?
Answer: 18.0%

Question: What about the “% died” value (plasmodium berghei; s.c., .30 mg/kg on days 1-3, 12th day) of the same compound?
Answer: 0%

Question: What about the “% died” value (plasmodium berghei; s.c., .30 mg/kg on days 1-3, 13th day) of the same compound?
Answer: 0%

Question: And the “% died” value (plasmodium berghei; s.c., .30 mg/kg on days 1-3, 14th day)?
Answer: 40%

Question: What about the “Mean % Parasitemia” value (plasmodium berghei; [25]) of the same compound?
Answer: 4.00%

Question: And the “Mean % Suppression” value (plasmodium berghei; [25])?
Answer: 23.8%

Question: What about the “Mean % Parasitemia” value (plasmodium berghei; [26]) of the same compound?
Answer: 5.10%

Question: What about the “Mean % Suppression” value (plasmodium berghei; [26]) of the same compound?
Answer: 30.1%

Question: And the “Mean % Parasitemia” value (plasmodium berghei; [27])?
Answer: 5.80%

Question: And the “Mean % Suppression” value (plasmodium berghei; [27])?
Answer: 37.6%

Question: What about the “Mean % Parasitemia” value (plasmodium berghei; [28]) of the same compound?
Answer: 26.7%

Question: And the “Mean % Suppression” value (plasmodium berghei; [28])?
Answer: 24.8%

Question: And the “% died” value (plasmodium berghei; s.c., .50 mg/kg on days 1-3, 12th day)?
Answer: 20%

Question: And the “% died” value (plasmodium berghei; s.c., .50 mg/kg on days 1-3, 13th day)?
Answer: 40%

Question: And the “% died” value (plasmodium berghei; s.c., .50 mg/kg on days 1-3, 14th day)?
Answer: 60%

Question: What about the LD50 (LD50 in mice) of the same compound?
Answer: 82 to 135 mg/kg

— patent publication US4340609A, “Amidinourea derivative veterinary compositions for suppression of parasitemia” (William H. Rorer, Inc., priority 1980, dated 1982)
